{"source": "patent US7067251B2", "about": "(priority 2000, dated 2006)", "tested_on": "C3H10T½ cells", "assay_type": "cell-based, murine", "data": [{"smiles": "NC(=O)NO", "note": "[HU, hydroxyurea]", "values": [{"measurement": "Type X collagen synthesis", "value": "induces type X collagen synthesis"}]}]}
